Values joined by “and” are separate entries in the source; they are usually repeats but may differ in a detail not shown here. Equal values may be shown once.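 48-hour exposure; five concentrations; linearly interpolated endpoints. The concentration for 50% growth inhibition is given as GI50. Definition used: TGI = concentration required for complete inhibition of growth.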
What was measured:
Test in all cases: growth of human tumour cells (NCI), 48 h
[1] = system: HCT-116 colon
[2] = system: MOLT-4 leukemia
[3] = system: UACC-257 melanoma
[4] = system: BT-549 breast
[5] = system: LOX IMVI melanoma
[6] = system: HOP-92 NSCLC
[7] = system: PC-3 prostate
[8] = system: NCI-H460 lung
[9] = system: M14 melanoma
[10] = system: COLO 205 colon

| Compound | TGI [1] | TGI [2] | TGI [3] | TGI [4] | TGI [5] | TGI [6] | TGI [7] | TGI [8] | TGI [9] | TGI [10] | GI50 [1] | GI50 [2] | GI50 [3] | GI50 [4] | GI50 [5] | GI50 [6] | GI50 [7] | GI50 [8] | GI50 [9] | GI50 [10] |
| --- | --- | --- | --- | --- | --- | --- | --- | --- | --- | --- | --- | --- | --- | --- | --- | --- | --- | --- | --- | --- |
| COc1ccc(CCN2C(=O)C=CC2=O)cc1OC | 11.2 µM | 5.49 µM | 30.9 µM | 35.3 µM | 36.9 µM | 40.1 µM | 35.1 µM | 46.8 µM | 24.1 µM | 3.54 µM | – | – | – | – | – | – | – | – | – | – |
| COc1cc(O)c2c(O)c3c(c4c2c1[C@]1(C4)C(C)=CCCC1(C)C)[C@H](O)[C@@]1(O)CC(=O)C(C(N)=O)=C(O)[C@@]1(O)C3=O | 1.3 µM | 1.76 µM | 0.931 µM | 1.54 µM | 1.71 µM | 1.6 µM | 0.834 µM | 0.664 µM | 1.58 µM | 0.24 µM | – | – | – | – | – | – | – | – | – | – |
| O=c1c2cccc(Cl)c2sc2c(NCCCNCCO)nc3ccccc3c12 | 3.13 µM | 5.19 µM | 28 µM | 30.6 µM | 2.77 µM | 7.82 µM | 15.5 µM | 2.32 µM | 3.54 µM | 4.39 µM | 1.57 µM | 2.12 µM | 10.4 µM | 14.8 µM | 1.41 µM | 1.26 µM | 3.45 µM | 1.01 µM | 1.79 µM | 1.9 µM |
| N#C/C(=C\c1ccc(-c2ccc(Cl)cc2)o1)C(=O)Nc1ncc(Cc2ccc(Cl)cc2)s1 | 3.51 µM | > 100 µM | > 100 µM | 10.4 µM | 7.55 µM | 7.11 µM | 3.67 µM | 2.46 µM | 6.08 µM | 7.39 µM | 1.41 µM | 3.75 µM | 4.06 µM | 2.34 µM | 2.62 µM | 1.97 µM | 1.5 µM | 0.983 µM | 2.04 µM | 2.45 µM |
| Cn1c2ccccc2c(=S)c2ccccc21 | > 100 µM | > 100 µM | > 100 µM | > 100 µM | > 100 µM | > 100 µM | > 100 µM | > 100 µM | > 100 µM | > 100 µM | – | – | – | – | – | – | – | – | – | – |
| Cn1cc(-c2nc(-c3c[nH]c4ncccc34)cs2)c2cc(F)ccc21 | 7.22 µM | 17 µM | 12.3 µM | 13.6 µM | 7.06 µM | 5.79 µM | 13.1 µM | 6.72 µM | 9.74 µM | 8.52 µM | 2.56 µM | 3.16 µM | 2.72 µM | 3.7 µM | 2.48 µM | 1.92 µM | 2.75 µM | 1.89 µM | 2.93 µM | 2.69 µM |
| C/C=C(\C)C(=O)N[C@H]1CC[C@]2(C)C3CC[C@@]4(C)C(CC[C@@H]4C(C)N(C)C)C3CCC2[C@H]1OC(C)=O (stereo partly specified) | 2.42 µM | 3.91 µM | 4.16 µM | 5.48 µM | 2.78 µM | 3.47 µM | 6.59 µM | 2.26 µM | 3.69 µM | 3.06 µM | 1.04 µM | 1.58 µM | 2.12 µM | 2.07 µM | 1.42 µM | 1.24 µM | 2.05 µM | 0.923 µM | 1.85 µM | 1.59 µM |
| CC1=CC(=NC(=O)CBr)C=C/C1=N\S(=O)(=O)c1ccccc1 | 4.97 µM | 9.65 µM | – | 10.6 µM | 3.24 µM | 6.77 µM | 13.2 µM | 34 µM | 13.9 µM | 21.2 µM | 2.05 µM | 2.75 µM | – | 3.15 µM | 1.68 µM | 1.8 µM | 3.17 µM | 15.1 µM | 3.26 µM | 5.96 µM |
| CCN(CC)CCCC(C)Nc1cnc(C(=O)Nc2ccc(Cl)c3cccnc23)cn1 (stereo unspecified) | – | 3.3 µM | 7.96 µM | 3.08 µM | 3.3 µM | 2.82 µM | 2.82 µM | 6.8 µM | 3.59 µM | 3.23 µM | – | 1.33 µM | 2.91 µM | 1.59 µM | 1.78 µM | 1.18 µM | 1.32 µM | 2.64 µM | 1.79 µM | 1.58 µM |
| CCCCCCCCCCCCCC(=O)O[C@H]1CC[C@H](NC(=O)[C@H](OC)[C@H](O)[C@@H](O)[C@H](O)/C=C/C(C)C)C(=O)NC1 | 1.06 µM | 16.9 µM and 14.5 µM | 27.2 µM and 20.4 µM | 51.2 µM | 9.4 µM and 1.15 µM | 4.12 µM | 51.2 µM and 12.7 µM | – | 0.345 µM and 0.556 µM and 0.129 µM | 0.00374 µM and 0.0154 µM | – | – | – | 12.8 µM | – | 0.554 µM | 0.0152 µM | – | – | – |
| C[C@@H]1CN(C(=O)c2ccc(NC(=O)c3cc(O[C@H](C)c4c(Cl)ccc(F)c4Cl)c(N)nn3)cc2)C[C@H](C)N1 | 10.7 µM | 10.4 µM | 3.2 µM | 16.5 µM | 3.04 µM | 5.18 µM | 16.7 µM | 13.7 µM | 3.19 µM | – | 1.46 µM | 0.907 µM | 1.39 µM | 5.14 µM | 1.46 µM | 0.722 µM | 3.65 µM | 3.1 µM | 1.55 µM | – |

From PubChem BioAssay (NCI)
